Assay results published in patent publication US10302631B2, “Genetically encoded probe for quantification of pyruvate concentration and methods of using the same” (CENTRO DE ESTUDIOS CLENTIFICOS DE VALDIVIA, priority 2013, dated 2019).

Experiments:
Pyronic = experiment: Specificity: effect of a panel of metabolites on the purified sensor and on its response to pyruvate; assay type: biochemical, Escherichia coli
Method: The specificity was investigated by exposing the sensor to high concentrations of a panel of metabolites of natural occurrence (FIG. 9). From the chosen set of molecules, citrate and oxalacetate produced a modest effect at 1 mM, and a very small at 100 μM Oxalacetate levels are in the low micromolar range and should not affect the pyruvate sensor, and cytosolic citrate levels are below 100 μM (Siess et al., 1978; Kauppinen et al., 1982), and therefore should have a negligible effect on the pyruvate sensor. Further to explore the specificity, the effect of a panel of metabolites on the response of the sensor to pyruvate was explored (FIGS. 10, 11 and 12). […] The response of the sensor to pyruvate was insensitive to the extreme values of the redox ratio, achieved by manipulating NAD^+ and NADH (FIG. 13).
Fluorescence Measurements. Nickel-purified proteins were resuspended at 100 nM in an intracellular buffer containing (mM): 10 NaCl, 130 KCl, 1.25 MgSO4 and 10 HEPES, pH 7.0, and measured with a microplate reader analyzer (EnVision, PerkinElmer). The proteins were excited at 430 nm and the intensity of fluorescence emission of mTFP and Venus were recorded at 485 nm (FmTFP) and 528 nm (FVenus), respectively. The ratio (R) between FmTFP and FVenus was used to characterize the sensors. Emission spectra were obtained at 430 nm excitation, with 2 nm windows. Cells were imaged at room temperature (22-25° C.) in a 95% air/5% CO2-gassed solution of the following composition (in mM): 112 NaCl, 1.25 CaCl2, 1.25 MgSO4, 1-2 glucose, 10 HEPES, 24 NaHCO^3, pH 7.4, with 3 mM KCl (astrocytes) or 5 mM KCl (HEK and T98G) using an upright Olympus FV1000 Confocal Microscope equipped with a 20× water immersion objective (N.A. 1.0) and a 440 nm solid-state laser. Alternatively, cells were imaged with an Olympus IX70 or with an Olympus BX51 microscope equipped with a 40× oil-immersion objective (NA 1.3) or with a 20× water-immersion objective (NA 0.95). Microscopes were equipped with CAIRN monochromators (Faversham, UK), and either a Hamamatsu Orca camera controlled by Kinetics software or a Rollera camera controlled with Metafluor software, respectively. For sensor ratio measurements, cells were excited at 430 nm for 0.2-0.8 s. Emission was divided with a CAIRN Optosplit, equipped with band pass filters at 480±20 (FmTFP) and 535±15 nm (FVenus). The ratio between FmTFP and FVenus was used to measure pyruvate.

[1] = system: monocarboxylate transporter (MCT); experiment: Initial rate of uptake of 1 mM pyruvate measured with the sensor, inhibition by MCT blockers; assay type: cell-based, mice; details: astrocytic uptake
Method: In this first embodiment, with the information obtained in the calibration step, the disruption of the steady-state of pyruvate entering the cell is carried out by altering the extracellular concentration of pyruvate, thus exposing the cells to pyruvate. This causes a rise in intracellular pyruvate that is monitored with the pyruvate sensor and whose initial rate is independent of pyruvate metabolism and can be used to estimate kinetic parameters (FIG. 18). Exposure of the cells to increasing concentrations of pyruvate allows the estimation of kinetic parameters for the pyruvate transporter. Kinetic parameters are also obtained from the decrease in intracellular pyruvate after removal of extracellular pyruvate. The identity of the transport pathway for pyruvate can be determined by the use of pharmacological blockers of specific transporter proteins, such as phloretin or AR-C155858 (FIG. 18 and FIG. 19), or other such as parachloromercurybenzoate, anti-MCT antisera, etc., or with compounds that interfere with the expression of specific transporter proteins, such as shRNA or siRNA, or by other similar means.
Animals and Cell Cultures. […]
(§1) Fluorescence Measurements. Nickel-purified proteins were resuspended at 100 nM in an intracellular buffer containing (mM): 10 NaCl, 130 KCl, 1.25 MgSO4 and 10 HEPES, pH 7.0, and measured with a microplate reader analyzer (EnVision, PerkinElmer). […]

[2] = system: mitochondrial pyruvate consumption in HEK293 cells; experiment: Rate of mitochondrial pyruvate consumption, pyruvate as exclusive substrate, after MCT blockage; assay type: cell-based
HEK293 cells = experiment: Rate of cellular pyruvate production after MCT blockage; assay type: cell-based
Method: In this second embodiment cells are incubated under physiological concentrations of glucose, lactate and pyruvate, and with the information obtained in the calibration step and the known sensitivity of surface pyruvate transporters to specific inhibitors, the steady-state of pyruvate is acutely disrupted by blocking the function of pyruvate transporter, for example by addition of a pharmacological blocker of the pyruvate transporter. In mammalian cells, the pyruvate transporter is the MCT and can be blocked with phloretin, parachloromercurybenzoate, AR-C155858, anti-MCT antisera, or other suitable compounds. […] If the cell is a net pyruvate importer, application of the MCT-blocker causes a fall in intracellular pyruvate concentration, the initial rate of which is equal to the rate of pyruvate consumption on the steady-state. […] A critical property of this sensor is that has a single component of binding so that it allows accurate quantitation of these rates. […]
as §1, with “PerkinElmer). The proteins were excited at 430 nm and the intensity of fluorescence emission of mTFP and Venus were recorded at 485 nm (FmTFP) and 528 nm (FVenus), respectively.” for “PerkinElmer).”

O=C(O)CC(O)(CC(=O)O)C(=O)O [citrate]
effect on the fluorescence ratio of the sensor (Pyronic; metabolite at 100 μM): very small | effect on the response of the sensor to pyruvate (Pyronic; metabolite at 100 μM): very small effect | effect on the fluorescence ratio of the sensor (Pyronic; metabolite at 1 mM): modest effect | effect on the response of the sensor to pyruvate (Pyronic; metabolite at 1 mM): significant effect

Cc1n[nH]c(C)c1Cc1sc2c(c1C(=O)N1C[C@H](O)CO1)c(=O)n(C)c(=O)n2CC(C)C [AR-C155858]
inhibition of initial rate of uptake of 1 mM pyruvate ([1]; blocker at 1 μM): strongly inhibited | change in cytosolic pyruvate concentration after MCT blockage ([2]; cells deprived of glucose, high extracellular pyruvate): fall in the cytosolic pyruvate concentration | rate of decrease in intracellular pyruvate after MCT blockage ([2]; single HEK293 cell, pyruvate as exclusive substrate): 1.73 µM/s | change in intracellular pyruvate after MCT blockage (HEK293 cells; HEK293 cells, blocker at 1 μM): increase in intracellular pyruvate | rate of accumulation of intracellular pyruvate after MCT blockage (HEK293 cells; single HEK293 cell): 0.72 µM/s

O=C(O)CC(=O)C(=O)O [oxalacetate]
effect on the fluorescence ratio of the sensor (Pyronic; metabolite at 100 μM): very small | effect on the fluorescence ratio of the sensor (Pyronic; metabolite at 1 mM): modest effect

O=C(CCc1ccc(O)cc1)c1c(O)cc(O)cc1O [phloretin]
inhibition of initial rate of uptake of 1 mM pyruvate ([1]; blocker at 50 μM): strongly inhibited
